Laboratory results reported in patent US8344113B2, “Diagnostic tumor markers, drug screening for tumorigenesis inhibition, and compositions and methods for treatment of cancer” (Minerva Biotechnologies Corporation, priority 2000, dated 2013).
One block for each molecule: values may come before it. No end group written: not given here.

How the values were obtained:
[1] = test system: K293 cells; test: Cell proliferation assay, negative control cells treated with drug candidates; type: cell-based, human
Experimental: (§1) T47D cells, mammary carcinoma cells known to overexpress MUC1, were grown in the wells of an ELISA plate along with K293 cells, human embryonic kidney cells which will serve as the negative control. 100 μl cells in growth media were added to the wells of an ELISA plate and the cells were allowed to adhere overnight. The number of cells in each well on the plate were then counted and recorded. 1 μl of a drug candidate in DMSO was then added to each well of both the T47D cells and the K293 cells. 1 μl DMSO alone was added to control wells. Each well was repeated in triplet. The cells were allowed to grow for 48 hours, the normal doubling time for these cell lines. The number of cells in each well was again counted and recorded. The percent cell growth over this 48-hour period was calculated, and the percent cell growth for wells containing a drug candidate versus DMSO were compared. […] Cell growth in the presence of Etomoxir was […] for T47D cells and 94% for control cells (K293); Cell growth in the presence of L-alpha-methyl-DOPA was 20% for T47D cells and 110% for control cells (K293); Cell growth in the presence of Fusaric acid was 27.7% for T47D cells, and 106.7% for control cells (K293); Cell growth in the absence of any drug (but with an equivalent amount of DMSO added) was 91.3% for T47D cells, and 106.2% for control cells (K293).

[2] = test system: T47D cells; test: Cell proliferation assay, MUC1 tumor cells treated with drug candidates; type: cell-based, human; conditions: for Selective inhibition of proliferation of MUC1-expressing tumor cells over control cells: T47D versus K293, 48 hours; for Cell growth (percent cell growth over 48 hours): T47D cells
Experimental: as §1

[3] = target: T1, MGFR portion of the MUC1 receptor and its activating ligand(s) (Homo sapiens, UniProt P15941, R1131P); test: Colloid-based color-change drug screening assay (His-PSMGFR colloids plus T47D cell lysate); type: binding; conditions: final drug concentration approximately 100 μM
T1 construct: made in house; host or cells: chemical synthesis (synthetic peptide)
T1 sequence (P15941 with tags, fused parts or gaps R1131P): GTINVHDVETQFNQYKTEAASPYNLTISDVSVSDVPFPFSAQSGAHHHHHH
Experimental: In a typical example, 1.5 ml of commercially available gold colloid (Auro Dye by Amersham) were pelleted by centrifugation in a microfuge on high for 10 minutes. The pellet was resuspended in 100 μL of the storage buffer (sodium citrate and tween-20). 100 μL of a dimethyl formamide (DMF) solution containing thiols. Following a 3-hour incubation in the thiol solution, the colloids were pelleted and the supernatant discarded. They were then heat cycled in 100 μL of 400 μM tri-ethylene glycol-terminated thiol in DMF for 2 minutes at 55° C., 2 minutes at 37° C., 1 minute at 55° C., 2 minutes at 37° C., then room temperature for 10 minutes. Heat cycling results in the elimination of any species that are not in the lowest energy confirmation, resulting in a stable, close-packed, self-assembled monolayer. Heat cycling can be carried out with any of a wide variety of self-assembled monolayer-forming species. The colloids were then pelleted and 100 μL 100 mM NaCl phosphate buffer were added. The colloids were then diluted 1:1 with 180 μM NiSO4 in the colloid storage buffer.
Thiols used in coating colloids typically were derived from solutions containing about 40 μM nitrilo tri-acetic acid (NTA)-thiol, and other thiols such as methyl-terminated thiol (HS—(CH2)15 CH3), 40% tri-ethylene glycol-terminated thiol, HS(CH2)11[…], (formula) and 50% poly(ethynylphenyl) thiol (C16H10S).
Colloid aggregation can be sensitively detected by monitoring color change of colloid particles which are initially disperse in suspension. Aggregation results in a color change to blue. No auxiliary signaling entity is necessary. In drug screening, aggregation (or lack thereof) is observed in the presence of candidate drugs.
The following is an example of a working drug screening assay to identify anti-cancer agents. In this example, a histidine-tagged peptide derived from the portion of the MUC1 receptor that remains attached to the cell surface after receptor cleavage (His-PSMGFR) was attached to NTA-nickel-SAM-coated gold colloids. The peptide-presenting colloids were incubated with lysates/supernatants from MUC1 presenting cells that were shown herein to contain ligands that cause dimerization or multimerization of that portion of the MUC1 receptor. This ligand-induced multimerization of the MGFR portion of the receptor causes the attached colloids to be drawn close together, which causes a change in the color of the colloid solution from pink to blue. Drugs that interfere with the binding of activating ligands to the MGFR portion of the receptor cause the solution to remain pink.
Negative control wells contained colloids bound with a random sequence histidine-tagged peptide in place of the MUC1 peptide. […] The well containing colloids that presented the PSMGFR peptide plus T47D cell lysates (Well A) changed color from pink to blue, indicating the presence of a multimerizing ligand. Wells that contained a random sequence peptide (RGD) in place of the PSMGFR peptide (Well B) remained pink. Wells that contained phosphate buffer in place of cell lysate also remained pink (Wells C and D).
T47D cells were trypsinized from a T25 flask, pelleted, resuspended in phosphate buffer, and lysed by sonication to release the ligand into solution. NTA-SAM-coated colloids were bound with the His-PSMGFR peptide:
200 μl NTA-SAM-coated colloids were incubated with 20 μl 100 μM peptide in phosphate buffer for 15 minutes, pelleted to remove unbound peptide, and resuspended in phosphate buffer. […]

[4] = test system: T47D cells; test: Modulation of the inhibitory effect of Etomoxir on cell proliferation by added PSMGFR; type: cell-based, human
Experimental: The following experiment was performed in triplicate. T47D cells were grown to approximately 30% confluency. […] Then, a synthetic peptide (PSMGFR) was added to the cell growth media under normal cell growth conditions.

[5] = target: T2, PSMGFR peptide (Homo sapiens, UniProt P15941, R1131P); test: Co-elution of drugs with bead-immobilized His-PSMGFR peptide (HPLC / TLC); type: binding; conditions: eluates from NTA-nickel beads analyzed by TLC
T2 construct: made in house; host or cells: chemical synthesis (synthetic peptide)
T2 sequence (P15941 with tags, fused parts or gaps R1131P): T1 sequence (P15941 with tags, fused parts or gaps R1131P)
Experimental: The His-PSMGFR peptide was attached to NTA-nickel agarose beads then separately incubated with each of the drug candidates. 100 μl beads were bound to saturation with 1 mg peptide, rinsed to remove unbound peptide, and incubated with 25 μl 2.7 mg/ml drug candidate in DMSO for one hour in 5 ml phosphate buffer. Unbound drugs were washed away with phosphate buffer, and the peptide was eluted from the beads with PBS, 250 mM imidazole. If the drug candidate bound to the peptide, it would co-elute with the peptide in the imidazole solution. Peptide-drug complexes were then separated by HPLC. HPLC elution peaks from the complex were compared to the elution peaks from the drug, injected alone, and the PSMGFR peptide alone.
In a similar experiment, eluates from the beads were analyzed by TLC (thin layer chromatography). Two drugs, calcimycin and NS1619 which could be tracked by TLC, because they fluoresced under UV light, were tested. NTA-nickel bead-immobilized peptides were incubated with the drugs as described above, rinsed and eluted from the beads, then rotoevaporated to remove the aqueous buffer. The solid was then resuspended in ethylacetate, 5% methanol and spotted on TLC plates then run in the same organic solvent. […] Calcimycin, gave a clear blue spot under 250 nm UV light and ran at a less polar position (as expected) than the peptide itself. […]

[6] = test system: MUC1 receptor fragments (self-aggregation); test: Colloid color-change self-aggregation assay of MUC1-derived peptides; type: binding, human; conditions: peptide on NTA-Ni colloids
Experimental: Histidine-tagged peptides were synthesized with the sequences shown in table 1 (the various regions of MUC1). The lyophilized peptides were dissolved in DMSO to give a final concentration of 5 mM. A stock solution of each peptide was made by dissolving 4 μl 5 mM DMSO stock in 196 μl Phosphate-Buffered-Saline (PBS) for a resulting concentration of 100 μM. 20 μl of each 100 μM peptide solution was added to 100 μl colloids presenting NTA-Ni to capture the histidine tag of the peptides. The colloids were incubated with the histidine-tagged peptides at room temperature for 10 minutes to allow binding of the histidine-tags to the NTA-Ni on the surface of the colloids. 20 μl aliquots of each peptides species on colloids was then mixed with 20 μl of every other peptide species and with 60 μl of phosphate buffer pH 7.4. The color change of the colloid solutions was recorded after 15 minutes, see FIG. 2. Row A contains the His-PSIBR (primary sequence interchain binding region) peptide; Row B contains the His-TR peptide; Row C contains the His-RM2 peptide; Row D contains the His-PSMGFR peptide. Column 1 contains the His-PSIBR peptide; Column 2 contains the His-TR peptide; Column 3 contains the His-RM2 peptide; and Column 4 contains the His-PSMGFR peptide. […] During this period, the set of colloids incubated with the His-PSIBR peptide changed color from pink to blue. Only the well of Row A, Column 1, which is the cross section of PSIBR with itself, turned from pink to blue within the first 10 minutes.
The colloid sets were centrifuged to form a pellet and were resuspended in phosphate buffer. […] Since there was only one peptide species on the colloids, the binding interaction must be the PSIBR peptide binding to itself. The other sets of colloids bound to peptides were assayed for their interaction with one another by mixing 15 μl of one colloid type with 15 μl of a second colloid type and 70 μl phosphate buffer.
The peptide was attached to colloid particles presenting NTA thiols, as in other experiments described herein. […]

Molecule: CCOC(=O)[C@@]1(CCCCCCOc2ccc(Cl)cc2)CO1 [Etomoxir]
Cell growth (percent cell growth over 48 hours) [1]: 94%
Selective inhibition of proliferation of MUC1-expressing tumor cells over control cells [2]: selectively inhibited proliferation of the MUC1-expressing tumor cells over K293 negative control cells
Interruption of the interaction of MGFR with its ligand(s) (colloid solution stays pink) [3]: interrupt the interaction of MGFR with its ligand(s)
Cell proliferation in the presence of drug ([4]; approx. 100 micromolar): arrested

Molecule: CCCCc1ccc(C(=O)O)nc1 [Fusaric acid]
Cell growth (percent cell growth over 48 hours) [1]: 106.7%
Cell growth (percent cell growth over 48 hours) [2]: 27.7%

Molecule: C[C@](N)(Cc1ccc(O)c(O)c1)C(=O)O [L-alpha-methyl-DOPA]
Cell growth (percent cell growth over 48 hours) [1]: 110%
Cell growth (percent cell growth over 48 hours) [2]: 20%
Selective inhibition of proliferation of MUC1-expressing tumor cells over control cells [2]: selectively inhibited proliferation of the MUC1-expressing tumor cells over K293 negative control cells
Interruption of the interaction of MGFR with its ligand(s) (colloid solution stays pink) [3]: interrupt the interaction of MGFR with its ligand(s)

Direct binding to PSMGFR peptide (co-elution, TLC) [5]: co-eluted with the PSMGFR peptide
Molecule: O=c1[nH]c2cc(C(F)(F)F)ccc2n1-c1cc(C(F)(F)F)ccc1O [NS1619]
Interruption of the interaction of MGFR with its ligand(s) (colloid solution stays pink) [3]: interrupt the interaction of MGFR with its ligand(s)

Molecule: CCCC[C@@]1(C2CCCC2)Cc2cc(OCC(=O)O)c(Cl)c(Cl)c2C1=O [butylindazone]
Interruption of the interaction of MGFR with its ligand(s) (colloid solution stays pink) [3]: interrupt the interaction of MGFR with its ligand(s)

Molecule: CNc1ccc2oc(C[C@H]3O[C@@]4(CC[C@H]3C)O[C@H]([C@H](C)C(=O)c3ccc[nH]3)[C@H](C)C[C@H]4C)nc2c1C(=O)O [calcimycin]
Interruption of the interaction of MGFR with its ligand(s) (colloid solution stays pink) [3]: interrupt the interaction of MGFR with its ligand(s)
Direct binding to PSMGFR peptide (co-elution, TLC) [5]: co-eluted with the PSMGFR peptide

Self-aggregation of colloid-immobilized peptide (color change pink to blue) [6]: self-aggregated
Molecule: ESMGFR: Histidine-tagged Extended Sequence of MUC1 Growth Factor Receptor, SEQ ID NO: 3 (VQLTLAFREGTINVHDVETQFNQYKTEAASPYNLTISDVSVSDVPFPFHHHHHH; “Extended Sequence of the MUC1 Growth Factor Receptor” (ESMGFR))

Self-aggregation of colloid-immobilized peptide (color change pink to blue) [6]: completely free of self-aggregation
Molecule: His-PSMGFR: Histidine-tagged PSMGFR peptide, SEQ ID NO: 2 (GTINVHDVETQFNQYKTEAASPYNLTISDVSVSDVPFPFSAQSGAHHHHHH; His-PSMGFR peptides)

Molecule: PSIBR: Primary Sequence of the Interchain Binding Region; tested histidine-tagged, SEQ ID NO: 4 (GFLGLSNIKFRPGSVVVQLTLAFRE; not fully specified (N-terminus); also: tested histidine-tagged, tag position not given here)
Self-aggregation of colloid-immobilized peptide (color change pink to blue) [6]: self-aggregates in a high affinity interaction

Molecule: PSMGFR: Primary Sequence of the MUC1 Growth Factor Receptor, SEQ ID NO: 7 (GTINVHDVETQFNQYKTEAASPYNLTISDVSVSDVPFPFSAQSGA; Primary Sequence of the MUC1 Growth Factor Receptor (PSMGFR))
Cell proliferation after adding peptide to Etomoxir-treated cells ([4]; Etomoxir approx. 100 micromolar present): increased cell proliferation
